Reference: ChEMBL document CHEMBL3243981, “Antileukemic activity of ungeremine and related compounds. Preparation of analogues of ungeremine by a practical photochemical reaction” (J Med Chem, 1978)
Activity calls are given as the source filed them. No cut-off for these calls is given here.

Columns and labels:
P388 [1] = experiment: Antileukemic activity against mouse P388 cells allografted in mouse assessed as host survival at 6.25 mg/kg administered daily as single dose; format: functional, organism-based; parameters: dose 6.25 mg/kg
P388 [2] = experiment: Antileukemic activity against mouse P388 cells allografted in mouse at 3.13 mg/kg administered daily as single dose relative to control; format: functional
P388 [3] = experiment: Antileukemic activity against mouse P388 cells allografted in mouse assessed as host survival at 25 mg/kg administered daily as single dose; format: functional, organism-based; parameters: dose 25 mg/kg
P388 [4] = experiment: Antileukemic activity against mouse P388 cells allografted in mouse at 25 mg/kg administered daily as single dose relative to control; format: functional
P388 [5] = experiment: Antileukemic activity against mouse P388 cells allografted in mouse assessed as host survival at 18.8 mg/kg administered daily as single dose; format: functional, organism-based; parameters: dose 18.8 mg/kg
Mus musculus [6] = experiment: Toxicity in mouse allografted with mouse P388 cells assessed as change in body weight at 6.25 mg/kg administered daily as single dose; format: organism-based; parameters: dose 6.25 mg/kg; conditions: in vivo
Mus musculus [7] = experiment: Toxicity in mouse allografted with mouse P388 cells assessed as change in body weight at 18.8 mg/kg administered daily as single dose; format: organism-based; parameters: dose 18.8 mg/kg; conditions: in vivo
Mus musculus [8] = experiment: Toxicity in mouse allografted with mouse P388 cells assessed as change in body weight at 25 mg/kg administered daily as single dose; format: organism-based; parameters: dose 25 mg/kg; conditions: in vivo
P388 [9] = experiment: Antileukemic activity against mouse P388 cells allografted in mouse assessed as host survival at 12.5 mg/kg administered daily as single dose; format: functional, organism-based; parameters: dose 12.5 mg/kg
P388 [10] = experiment: Antileukemic activity against mouse P388 cells allografted in mouse assessed as host survival at 3.13 mg/kg administered daily as single dose; format: functional, organism-based; parameters: dose 3.13 mg/kg
Mus musculus [11] = experiment: Toxicity in mouse allografted with mouse P388 cells assessed as change in body weight at 3.13 mg/kg administered daily as single dose; format: organism-based; parameters: dose 3.13 mg/kg; conditions: in vivo
P388 [12] = experiment: Antileukemic activity against mouse P388 cells allografted in mouse at 12.5 mg/kg administered daily as single dose relative to control; format: functional
P388 [13] = experiment: Antileukemic activity against mouse P388 cells allografted in mouse at 18.8 mg/kg administered daily as single dose relative to control; format: functional
P388 [14] = experiment: Antileukemic activity against mouse P388 cells allografted in mouse at 6.25 mg/kg administered daily as single dose relative to control; format: functional
Mus musculus [15] = experiment: Toxicity in mouse allografted with mouse P388 cells assessed as change in body weight at 12.5 mg/kg administered daily as single dose; format: organism-based; parameters: dose 12.5 mg/kg; conditions: in vivo
P388 [16] = experiment: Antileukemic activity against mouse P388 cells allografted in mouse assessed as host survival at 50 mg/kg administered daily as single dose; format: functional, organism-based; parameters: dose 50 mg/kg
Mus musculus [17] = experiment: Toxicity in mouse allografted with mouse P388 cells assessed as change in body weight at 100 mg/kg administered daily as single dose; format: organism-based; parameters: dose 100 mg/kg; conditions: in vivo
P388 [18] = experiment: Antileukemic activity against mouse P388 cells allografted in mouse at 50 mg/kg administered daily as single dose relative to control; format: functional
P388 [19] = experiment: Antileukemic activity against mouse P388 cells allografted in mouse at 100 mg/kg administered daily as single dose relative to control; format: functional
Mus musculus [20] = experiment: Toxicity in mouse allografted with mouse P388 cells assessed as change in body weight at 50 mg/kg administered daily as single dose; format: organism-based; parameters: dose 50 mg/kg; conditions: in vivo

Question: What does the source list for C[n+]1cc2cc3c(cc2c2ccccc21)OCO3.[Cl-]?
Answer: Survival (P388 [1]): Active; T/C (P388 [2]): 126%; Survival (P388 [3]): Active; T/C (P388 [4]): 151%; Survival (P388 [5]): Active; Activity (Mus musculus [6]): -0.9 g; Activity (Mus musculus [7]): -1.3 g; Activity (Mus musculus [8]): -2.5 g; Survival (P388 [9]): Active; Survival (P388 [10]): Active; Activity (Mus musculus [11]): -0.3 g; T/C (P388 [12]): 135%; T/C (P388 [13]): 144%; T/C (P388 [14]): 129%; Activity (Mus musculus [15]): -1 g

Question: What does the source list for Oc1cc2c3c(c1)c1cc4c(cc1c[n+]3CC2)OCO4.[Cl-]?
Answer: Survival (P388 [1]): Active; T/C (P388 [2]): 133%; T/C (P388 [4]): 164%; Activity (Mus musculus [6]): -1.7 g; Activity (Mus musculus [8]): -3.9 g; Survival (P388 [9]): Active; Survival (P388 [10]): Active; Activity (Mus musculus [11]): -0.7 g; T/C (P388 [12]): 155%; T/C (P388 [14]): 151%; Activity (Mus musculus [15]): -2.4 g

Question: With [Cl-].c1cc2c3c(c1)c1cc4c(cc1c[n+]3CCC2)OCO4 as the compound, how does the Survival (P388 [1]) read?
Answer: Active

Question: What about the T/C (P388 [2]) of the same compound?
Answer: 110%

Question: What about the T/C (P388 [4]) of the same compound?
Answer: 120%

Question: And the Survival (P388 [5])?
Answer: Active

Question: And the Activity (Mus musculus [6])?
Answer: -1.7 g

Question: What about the Activity (Mus musculus [7]) of the same compound?
Answer: -2.4 g

Question: And the Activity (Mus musculus [8])?
Answer: -3.3 g

Question: And the Survival (P388 [9])?
Answer: Active

Question: And the Survival (P388 [16])?
Answer: inactive

Question: And the Survival (P388 [10])?
Answer: Active

Question: What about the Activity (Mus musculus [11]) of the same compound?
Answer: -0.2 g

Question: And the T/C (P388 [12])?
Answer: 129%

Question: What about the T/C (P388 [13]) of the same compound?
Answer: 132%

Question: And the T/C (P388 [14])?
Answer: 126%

Question: What about the Activity (Mus musculus [15]) of the same compound?
Answer: -1.9 g

Question: What does the source list for COc1cc2c[n+](C)c3ccccc3c2cc1OC.[Cl-]?
Answer: Survival (P388 [3]): Active; T/C (P388 [4]): 121%; Activity (Mus musculus [17]): -3.8 g; Activity (Mus musculus [8]): -1 g; Survival (P388 [9]): Active; Survival (P388 [16]): Active; T/C (P388 [18]): 130%; T/C (P388 [19]): 123%; T/C (P388 [12]): 113%; Activity (Mus musculus [20]): -1.6 g; Activity (Mus musculus [15]): -1.1 g

Question: With [Cl-].c1cc2c3c(c1)c1cc4c(cc1c[n+]3CC2)OCO4 [ANHYDROLYCORINIUM CHLORIDE] as the compound, how does the Survival (P388 [1]) read?
Answer: Active

Question: What about the Survival (P388 [3]) of the same compound?
Answer: Active

Question: And the T/C (P388 [4])?
Answer: 153%

Question: And the Activity (Mus musculus [6])?
Answer: -1.5 g

Question: What about the Activity (Mus musculus [8]) of the same compound?
Answer: -2.9 g

Question: And the Survival (P388 [9])?
Answer: Active

Question: What about the T/C (P388 [12]) of the same compound?
Answer: 142%

Question: What about the T/C (P388 [14]) of the same compound?
Answer: 127%

Question: And the Activity (Mus musculus [15])?
Answer: -2.1 g

Question: Which results are given for [O-]c1cc2c3c(c1)c1cc4c(cc1c[n+]3CC2)OCO4 [UNGEREMINE]?
Answer: Survival (P388 [1]): Active; T/C (P388 [2]): 133%; Survival (P388 [3]): Active; T/C (P388 [4]): 148%; Activity (Mus musculus [6]): -0.7 g; Activity (Mus musculus [8]): -2.1 g; Survival (P388 [9]): Active; Survival (P388 [16]): Active; T/C (P388 [18]): 152%; Survival (P388 [10]): Active; Activity (Mus musculus [11]): -0.7 g; T/C (P388 [12]): 148%; Activity (Mus musculus [20]): -3.9 g; T/C (P388 [14]): 136%; Activity (Mus musculus [15]): -1.9 g

Question: Which Survival (P388 [1]) does the source give for COS(=O)(=O)[O-].C[n+]1cc2ccccc2c2ccccc21 here?
Answer: Active

Question: What about the T/C (P388 [2]) of the same compound?
Answer: 108%

Question: And the Survival (P388 [3])?
Answer: Active

Question: What about the T/C (P388 [4]) of the same compound?
Answer: 125%

Question: And the Activity (Mus musculus [6])?
Answer: -1 g

Question: What about the Activity (Mus musculus [8]) of the same compound?
Answer: -3.2 g

Question: And the Survival (P388 [9])?
Answer: Active

Question: What about the Survival (P388 [16]) of the same compound?
Answer: Active

Question: And the T/C (P388 [18])?
Answer: 113%

Question: And the Survival (P388 [10])?
Answer: Active

Question: What about the Activity (Mus musculus [11]) of the same compound?
Answer: -0.8 g

Question: What about the T/C (P388 [12]) of the same compound?
Answer: 120%

Question: And the Activity (Mus musculus [20])?
Answer: -6.4 g

Question: What about the T/C (P388 [14]) of the same compound?
Answer: 117%

Question: And the Activity (Mus musculus [15])?
Answer: -2.2 g

Question: Which Survival (P388 [3]) does the source give for COc1cc2c[n+]3c4c(cccc4c2cc1OC)CC3.[Cl-] here?
Answer: Active

Question: And the T/C (P388 [4])?
Answer: 108%

Question: And the Activity (Mus musculus [17])?
Answer: -5.1 g

Question: And the Activity (Mus musculus [8])?
Answer: -0.9 g

Question: What about the Survival (P388 [16]) of the same compound?
Answer: Active

Question: What about the T/C (P388 [18]) of the same compound?
Answer: 118%

Question: And the T/C (P388 [19])?
Answer: 114%

Question: What about the Activity (Mus musculus [20]) of the same compound?
Answer: -1.7 g

Question: COc1cc2c[n+]3c4c(cccc4c2cc1OC)CCC3.[Cl-] was tested. Which Survival (P388 [3]) did it give?
Answer: Active

Question: And the T/C (P388 [4])?
Answer: 108%

Question: What about the Activity (Mus musculus [8]) of the same compound?
Answer: -0.1 g

Question: What about the Survival (P388 [9]) of the same compound?
Answer: Active

Question: And the Survival (P388 [16])?
Answer: Active

Question: What about the T/C (P388 [18]) of the same compound?
Answer: 110%

Question: What about the T/C (P388 [12]) of the same compound?
Answer: 109%

Question: What about the Activity (Mus musculus [20]) of the same compound?
Answer: -3.2 g

Question: What about the Activity (Mus musculus [15]) of the same compound?
Answer: -1.4 g
